Legend:
FLG mRNA = test: Filaggrin (FLG) mRNA expression promotive action test; format: cell-based, human; details: NHEK, 24 hours, corrected with GAPDH
Method: Normal human neonatal epidermal keratinocytes (NHEK) were precultured using normal human epidermal keratinocyte growth medium (KGM), and the cells were collected by a trypsin treatment. The collected cells were diluted with KGM to a cell density of 15×10^4 cells/mL, then seeded with 2 mL portions in a 6-well plate (30×10^4 cells/well), and cultured overnight under conditions of 37° C. and 5% CO2. After culturing, the medium was replaced with normal human epidermal keratinocyte basal medium (KBM, the above KGM without addition of growth additives (hEGF, BPE, insulin, antibacterial agents, hydrocortisone)), and culturing was further performed for 24 hours.
After culturing for 24 hours, the medium was removed, and 2 mL of each of test samples (Samples 1 to 3, see Table 18 below for final concentrations) dissolved in KBM was added to each well, and culturing was performed under conditions of 37° C. and 5% CO2 for 24 hours. As a control, culturing was performed in the same manner using KBM to which no sample was added. After culturing, the medium was removed, total RNA was extracted using ISOGEN II (available from NIPPON GENE CO., LTD.), each RNA amount was measured using a spectrophotometer, and the total RNA was prepared so as to be 150 ng/μL.
For FLG and GAPDH as an internal standard, the expression levels of mRNA were measured using the above total RNA as a template. Detection was performed through a two-step real-time RT-PCR reaction using a real-time PCR device, Thermal Cycler Dice Real Time System III (available from Takara Bio Inc.), with PrimeScript™ RT Master Mix (Perfect Real Time) (available from Takara Bio Inc.) and TB Green® Fast qPCR Mix (available from Takara Bio Inc.). Primers available from Takara Bio Inc. were used. The expression level of FLG mRNA was obtained as a value corrected with a value of GAPDH based on total RNA preparations prepared from cells cultured “with test sample addition” and “without sample addition.” From the obtained values, the FLG mRNA expression promotion rate (%) was calculated using the following equation.
Terms in the equation represent the following respective ones. • A: Corrected value with test sample addition • B: Corrected value without sample addition

B16 melanoma cells = test: Melanin production suppressive action test on B16 melanoma cells; format: cell-based; details: 4 days, corrected by cell survival rate
Method: B16 melanoma cells were cultured using Dulbecco's modified Eagle's medium (DMEM) containing 10% FBS, and then the cells were collected by a trypsin treatment. The collected cells were diluted with DMEM containing 10% FBS and 1 mmol/L theophylline to a cell density of 24.0×10^4 cells/mL, then seeded with 300 μL per well in a 48-well plate, and cultured for 6 hours.
After the culturing was completed, 300 μL of each of test samples (Samples 1 to 3, see Table 5 below for final concentrations) dissolved in DMEM containing 10% FBS and 1 mmol/L theophylline was added to each well, and culturing was performed for 4 days. As a control, culturing was performed in the same manner using DMEM containing 10% FBS and 1 mmol/L theophylline to which no sample was added. After the culturing was completed, the medium was removed, 200 μL of 2 mol/L NaOH solution was added, the cells were disrupted using an ultrasonic disrupter, and the absorbance at a wavelength of 475 nm was measured. From the measured absorbance value, the amount of melanin was calculated based on a calibration curve created using synthetic melanin (available from SIGMA).
In addition, in order to measure the cell survival rate, after culturing in the same manner as above, the medium was removed, the cells were washed with 400 μL of PBS(−) buffer solution, 200 μL of Neutral Red dissolved at a final concentration of 0.05 mg/mL in DMEM containing 10% FBS was added to each well, and culturing was performed for 2.5 hours. After culturing, the neutral red solution was removed, and 200 μL of ethanol/acetic acid solution (ethanol:acetic acid:water=50:1:49) was added to each well to extract the dye. After extraction, the absorbance at a wavelength of 540 nm was measured. From the obtained results, the melanin production suppression rate (%) corrected by the cell survival rate was calculated using the following equation.
Terms in the equation represent the following respective ones. • A: Melanin amount without sample addition • B: Melanin amount with test sample addition • C: Absorbance at wavelength 540 nm without sample addition • D: Absorbance at wavelength 540 nm with test sample addition

Row | SMILES | FLG mRNA expression promotion rate (FLG mRNA; 25 μmol/L) [%] | Melanin production suppression rate (B16 melanoma cells; 250 μmol/L) [%] | Melanin production suppression rate (B16 melanoma cells; 1000 μmol/L) [%] | FLG mRNA expression promotion rate (FLG mRNA; 100 μmol/L) [%] | Melanin production suppression rate (B16 melanoma cells; 62.5 μmol/L) [%]
1 | O=C(O)CCc1ccccc1 [Sample 3, 3-phenylpropionic acid] | 196.6 | 46.2 | 57.0 |  | 
2 | O=C(O)CCc1ccc(O)c(O)c1 [Sample 1, 3,4-Dihydroxyhydrocinnamic acid] | 197.2 | 63.8 |  | 342.0 | 
3 | O=C(O)CCc1ccc(O)cc1 [Sample 2, 3-(4-Hydroxyphenyl)propionic acid] | 168.2 | 40.2 | 69.5 | 129.8 | 8.5
